In the assay the target is Recombinant human IDO (Homo sapiens, UniProt P14902). The experiment in a line: Bridge-IT tryptophan fluorescence assay of human IDO-1 inhibition. The assay is classed as biochemical. To be noted: recombinant human IDO 7.5 nM, L-tryptophan. The procedure: Measurement of human IDO-1 inhibition is performed in 384 well format using the Bridge-IT® tryptophan Fluorescence Assay (Mediomics, LLC, St. Louis, Mo., U.S.A.).
Recombinant human IDO, sequence (P14902 whole entry): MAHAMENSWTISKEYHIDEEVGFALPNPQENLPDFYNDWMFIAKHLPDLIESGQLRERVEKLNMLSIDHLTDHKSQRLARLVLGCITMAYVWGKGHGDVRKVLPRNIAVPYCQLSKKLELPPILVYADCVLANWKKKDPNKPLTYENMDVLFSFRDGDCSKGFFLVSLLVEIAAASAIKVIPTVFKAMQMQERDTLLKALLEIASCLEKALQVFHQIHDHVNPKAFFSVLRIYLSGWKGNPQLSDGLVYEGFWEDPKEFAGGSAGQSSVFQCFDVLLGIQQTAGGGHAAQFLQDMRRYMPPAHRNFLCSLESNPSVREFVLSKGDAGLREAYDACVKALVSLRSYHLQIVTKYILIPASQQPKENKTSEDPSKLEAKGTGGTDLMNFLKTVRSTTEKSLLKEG
The reaction is initiated by the addition of L-Tryptophan (Sigma) at a final concentration of 100 μM in assay buffer. After 90 minutes of incubation at 37° C., the reaction is stopped by transferring 1 μl of the reaction mixture to 9 μl of Bridge-IT assay solution A. After 30 min of incubation at 30° C., the fluorescence intensity was measured at λex=485 nm and λem=665 nm using Perkin Elmer Envision® Multilabel Reader.
Measurement of human IDO-1 inhibition was performed in 384-well format using the BRIDGE-IT® tryptophan Fluorescence Assay (Mediomics, LLC, St. Louis, Mo., U.S.A.). […] After 30 minutes of pre-incubation at 25° C., the reaction was initiated by the addition of L-Tryptophan (Sigma) at a final concentration of 50 μM in assay buffer. After 60 minutes of incubation at 25° C., the reaction is stopped by transferring 1 μl of the reaction mixture to 9 μl of Bridge-IT assay solution A. After 30 min of incubation at 30° C., the fluorescence intensity was measured at λex=485 nm and λem=665 nm using Perkin Elmer ENVISION® Multilabel Reader.
Broadly, the IC50 is the concentration that inhibits the measured activity by half. `FC1(CCC2c3cnccc3-c3cncn32)CCCCC1` (single isomer, unassigned) [Compound 10a, 7-[2-(1-fluorocyclohexyl)ethyl]-4,6,10-triazatricyclo[6.4.0.0^[2,6]]dodeca-1(8),2,4,9,11-pentaene]: the IC50 was over 1000 nM. For `FC1(CCC2c3cnccc3-c3cncn32)CCCCC1` (single isomer, unassigned) [Compound 10b, 7-[2-(1-fluorocyclohexyl)ethyl]-4,6,10-triazatricyclo[6.4.0.0^[2,6]]dodeca-1(8),2,4,9,11-pentaene], the IC50 is over 1000 nM. As to `OC1CCC(F)(CCC2c3ccccc3-c3cncn32)CC1` (single isomer, unassigned) [Compound 13a, 4-(2-(5H-imidazo[5,1-a]isoindol-5-yl)ethyl)-4-fluorocyclohexanol], the IC50 was over 1000 nM. The same measure for `OC1CCC(F)(CCC2c3ccccc3-c3cncn32)CC1` (single isomer, unassigned) [Compound 13b, 4-(2-(5H-imidazo[5,1-a]isoindol-5-yl)ethyl)-4-fluorocyclohexanol]: under 100 nM; for `COc1cc2c(cn1)-c1cncn1C2CCC1(F)CCCCC1` (single isomer, unassigned) [Compound 15a, 7-[2-(1-fluorocyclohexyl)ethyl]-10-methoxy-4,6,11-triazatricyclo[6.4.0.0^[2,6]]dodeca-1(8),2,4,9,11-pentaene]: over 1000 nM; for `COc1cc2c(cn1)-c1cncn1C2CCC1(F)CCCCC1` (single isomer, unassigned) [Compound 15b, 7-[2-(1-fluorocyclohexyl)ethyl]-10-methoxy-4,6,11-triazatricyclo[6.4.0.0^[2,6]]dodeca-1(8),2,4,9,11-pentaene]: over 1000 nM.

For the compound `OC1CCC(F)(CCC2c3c(F)cccc3-c3cncn32)CC1` (single isomer, unassigned) [Compound 16a, 4-fluoro-4-(2-(6-fluoro-5H-imidazo[5,1-a]isoindol-5-yl)ethyl)cyclohexanol], the IC50 was under 100 nM. The same measure for `OC1CCC(F)(CCC2c3c(F)cccc3-c3cncn32)CC1` (single isomer, unassigned) [Compound 16b, 4-fluoro-4-(2-(6-fluoro-5H-imidazo[5,1-a]isoindol-5-yl)ethyl)cyclohexanol]: 100 to 1000 nM; for `FC1(CCC2c3ncccc3-c3cncn32)CCCCC1` (single isomer, unassigned) [Compound 18a, 7-[2-(1-fluorocyclohexyl)ethyl]-4,6,9-triazatricyclo[6.4.0.0^[2,6]]dodeca-1(8),2,4,9,11-pentaene]: 100 to 1000 nM; for `FC1(CCC2c3ncccc3-c3cncn32)CCCCC1` (single isomer, unassigned) [Compound 18b, 7-[2-(1-fluorocyclohexyl)ethyl]-4,6,9-triazatricyclo[6.4.0.0^[2,6]]dodeca-1(8),2,4,9,11-pentaene]: over 1000 nM. The same measure for `Fc1cccc2c1C(CCC1(F)CCCCC1)n1cncc1-2` (single isomer, unassigned) [Compound 19a, 6-fluoro-5-(2-(1-fluorocyclohexyl)ethyl)-5H-imidazo[5,1-a]isoindole]: over 1000 nM; for `Fc1cccc2c1C(CCC1(F)CCCCC1)n1cncc1-2` (single isomer, unassigned) [Compound 19b, 6-fluoro-5-(2-(1-fluorocyclohexyl)ethyl)-5H-imidazo[5,1-a]isoindole]: under 100 nM. The same measure for `OC(CC1c2ncccc2-c2cncn21)C1CCC(F)(F)CC1` (single isomer, unassigned) [Compound 22a, 1-(4,4-difluorocyclohexyl)-2-[4,6,9-triazatricyclo[6.4.0.0^[2,6]]dodeca-1(8),2,4,9,11-pentaen-7-yl]ethan-1-ol]: 100 to 1000 nM; for `OC(CC1c2ncccc2-c2cncn21)C1CCC(F)(F)CC1` (single isomer, unassigned) [Compound 22b, 1-(4,4-difluorocyclohexyl)-2-[4,6,9-triazatricyclo[6.4.0.0^[2,6]]dodeca-1(8),2,4,9,11-pentaen-7-yl]ethan-1-ol]: over 1000 nM; for `OC(CC1c2ncccc2-c2cncn21)C1CCC(F)(F)CC1` (single isomer, unassigned) [Compound 22c, 1-(4,4-difluorocyclohexyl)-2-[4,6,9-triazatricyclo[6.4.0.0^[2,6]]dodeca-1(8),2,4,9,11-pentaen-7-yl]ethan-1-ol]: over 1000 nM. For the compound `OC(CC1c2ncccc2-c2cncn21)C1CCC(F)(F)CC1` (single isomer, unassigned) [Compound 22d, 1-(4,4-difluorocyclohexyl)-2-[4,6,9-triazatricyclo[6.4.0.0^[2,6]]dodeca-1(8),2,4,9,11-pentaen-7-yl]ethan-1-ol], the IC50 is over 1000 nM. The same measure for `CC1(C)CCC(F)(CCC2c3c(F)cccc3-c3cncn32)CC1` (single isomer, unassigned) [Compound 23a, 6-fluoro-5-(2-(1-fluoro-4,4-dimethylcyclohexyl)ethyl)-5H-imidazo[5,1-a]isoindole]: over 1000 nM.

Take `OC(CC1c2cc(F)ncc2-c2cncn21)C1CCCCC1` (single isomer, unassigned) [Compound 24a, 1-cyclohexyl-2-[10-fluoro-4,6,11-triazatricyclo[6.4.0.0^[2,6]]dodeca-1(8),2,4,9,11-pentaen-7-yl]ethan-1-ol]: the IC50 is over 1000 nM. The same measure for `OC(CC1c2cc(F)ncc2-c2cncn21)C1CCCCC1` (single isomer, unassigned) [Compound 24b, 1-cyclohexyl-2-[10-fluoro-4,6,11-triazatricyclo[6.4.0.0^[2,6]]dodeca-1(8),2,4,9,11-pentaen-7-yl]ethan-1-ol]: over 1000 nM. The same measure for `OC(CC1c2cc(F)ncc2-c2cncn21)C1CCCCC1` (single isomer, unassigned) [Compound 24c, 1-cyclohexyl-2-[10-fluoro-4,6,11-triazatricyclo[6.4.0.0^[2,6]]dodeca-1(8),2,4,9,11-pentaen-7-yl]ethan-1-ol]: under 100 nM; for `OC(CC1c2cc(F)ncc2-c2cncn21)C1CCCCC1` (single isomer, unassigned) [Compound 24d, 1-cyclohexyl-2-[10-fluoro-4,6,11-triazatricyclo[6.4.0.0^[2,6]]dodeca-1(8),2,4,9,11-pentaen-7-yl]ethan-1-ol]: under 100 nM; for `CC1(C)CCC(C(O)CC2c3nc(F)ccc3-c3cncn32)CC1` (single isomer, unassigned) [Compound 25a, 1-(4,4-dimethylcyclohexyl)-2-[10-fluoro-4,6,9-triazatricyclo[6.4.0.0^[2,6]]dodeca-1(8),2,4,9,11-pentaen-7-yl]ethan-1-ol]: over 1000 nM. `CC1(C)CCC(C(O)CC2c3nc(F)ccc3-c3cncn32)CC1` (single isomer, unassigned) [Compound 25b, 1-(4,4-dimethylcyclohexyl)-2-[10-fluoro-4,6,9-triazatricyclo[6.4.0.0^[2,6]]dodeca-1(8),2,4,9,11-pentaen-7-yl]ethan-1-ol]: the IC50 was over 1000 nM. For the compound `CC1(C)CCC(C(O)CC2c3nc(F)ccc3-c3cncn32)CC1` (single isomer, unassigned) [Compound 25c, 1-(4,4-dimethylcyclohexyl)-2-[10-fluoro-4,6,9-triazatricyclo[6.4.0.0^[2,6]]dodeca-1(8),2,4,9,11-pentaen-7-yl]ethan-1-ol], the IC50 is over 1000 nM.

With `CC1(C)CCC(C(O)CC2c3nc(F)ccc3-c3cncn32)CC1` (single isomer, unassigned) [Compound 25d, 1-(4,4-dimethylcyclohexyl)-2-[10-fluoro-4,6,9-triazatricyclo[6.4.0.0^[2,6]]dodeca-1(8),2,4,9,11-pentaen-7-yl]ethan-1-ol], the IC50 is over 1000 nM.

As for `OC(CC1c2nc(F)ccc2-c2cncn21)C1CCC(F)(F)CC1` (single isomer, unassigned) [Compound 26a, 1-(4,4-difluorocyclohexyl)-2-[10-fluoro-4,6,9-triazatricyclo[6.4.0.0^[2,6]]dodeca-1(8),2,4,9,11-pentaen-7-yl]ethan-1-ol], the IC50 is over 1000 nM. Turning to `OC(CC1c2nc(F)ccc2-c2cncn21)C1CCC(F)(F)CC1` (single isomer, unassigned) [Compound 26b, 1-(4,4-difluorocyclohexyl)-2-[10-fluoro-4,6,9-triazatricyclo[6.4.0.0^[2,6]]dodeca-1(8),2,4,9,11-pentaen-7-yl]ethan-1-ol], the IC50 fell in the range of 100 to 1000 nM. To `OC(CC1c2ncccc2-c2cncn21)C1CCC2(CC1)CC2` (single isomer, unassigned) [Compound 29a, 1-[spiro[2.5]octan-6-yl]-2-[4,6,9-triazatricyclo[6.4.0.0^[2,6]]dodeca-1(8),2,4,9,11-pentaen-7-yl]ethan-1-ol] belongs 100 to 1000 nM; to `OC(CC1c2ncccc2-c2cncn21)C1CCC2(CC1)CC2` (single isomer, unassigned) [Compound 29b, 1-[spiro[2.5]octan-6-yl]-2-[4,6,9-triazatricyclo[6.4.0.0^[2,6]]dodeca-1(8),2,4,9,11-pentaen-7-yl]ethan-1-ol], over 1000 nM. The same measure for `OC(CC1c2ncccc2-c2cncn21)C1CCC2(CC1)CC2` (single isomer, unassigned) [Compound 29c, 1-[spiro[2.5]octan-6-yl]-2-[4,6,9-triazatricyclo[6.4.0.0^[2,6]]dodeca-1(8),2,4,9,11-pentaen-7-yl]ethan-1-ol]: 100 to 1000 nM.

(Values after patent US9771370B2, “Compounds for the inhibition of indoleamine-2,3-dioxygenase” (Merck Patent GmbH, priority 2014, dated 2017).)
